Test system: tetrabenazine-induced hypothermia
Assay: In vivo tetrabenazine-induced hypothermia test
Details: oral gavage 60 minutes before TBZ i.p.; ICR male mice
Method: FIG. 1 depicts in vivo tetrabenazine-induced hypothermia test. Imipramine (positive control), PDC-1421, 1st Fraction 10-19, 1st Fraction 33, 2nd Fraction-1 (the major components are polygalatenosides A/B/C), 2nd Fraction-3, TMCA, Polygalaxanthone III, Onjisaponin B, Sibiricose A5, 7-O-Methylmangiferin and Sibiricaxanthone B are administered as test substances and the temperature recovery (%) is documented as shown in figure. The around 70% of PDC-1421 in Example 1 are composed of sucroester (34%), saponin (18%) and xanthone (17%). Some active compounds of powder product in Example 1, polygalatenosides A/B/C (2nd fraction 1), ploygalaxanthone III, sibiricoses A5, and 7-O-methylmangiferin are also discovered through in vivo tetrabenazine-induced hypothermia test (one of rodent models for evaluating antidepressant-like activity in mice). Imipramine (positive control), PDC-1421, 1st Fraction 10-19, 1st Fraction 33, 2nd Fraction-1 (the major components are polygalatenosides A/B/C), 2nd Fraction-3, TMCA, Polygalaxanthone III, Onjisaponin B, Sibiricose A5, 7-O-Methylmangiferin and Sibiricaxanthone B were dissolved in water for injection (WFI) and administered by oral gavage. The dosing volume was 10 mL/kg. Test substances and vehicle (WFI) were administered by oral gavage to groups of 8 ICR male mice weighing 23±3 g 60 minutes before intraperitoneal injection of tetrabenazine (TBZ, 85 ma/kg). Body temperature was recorded before (0 min), and 60, 90 and 120 min after TBZ challenge.

SMILES	activity in tetrabenazine-induced hypothermia test (temperature recovery)
COc1cc2c(=O)c3c(O)c([C@@H]4O[C@H](CO)[C@@H](O)[C@H](O)[C@H]4O)c(O)cc3oc2cc1O [7-O-methylmangiferin]	active
COc1cc2c(=O)c3c(O)c([C@@H]4O[C@H](CO[C@@H]5OC[C@](O)(CO)[C@H]5O)[C@@H](O)[C@H](O)[C@H]4O)c(O)cc3oc2cc1O [ploygalaxanthone III]	active
COc1cc(/C=C/C(=O)O[C@H]2[C@H](O)[C@@H](CO)O[C@@]2(CO)O[C@H]2O[C@H](CO)[C@@H](O)[C@H](O)[C@H]2O)ccc1O [sibiricoses A5]	active

From patent US11554154B2, “Polygala extract for the treatment of major depressive disorder” (priority 2020, dated 2023)
